Assay results reported in PubChem BioAssay AID256 (DTP/NCI, 2004).
Several values for one entry are separate records, joined by “and”; a condition that tells them apart may be missing. Equal values may be shown once. Inconclusive results and toxic doses are left out. Rule for the calls: active = survival T/C of 150% or more; inactive = T/C below 125% in these data.

Test system: CD2F1 mice, L1210 leukemia ip, survival T/C
Assay: NCI In Vivo Anticancer Drug Screen. Data for tumor model L1210 Leukemia (intraperitoneal) in CD2F1 (CDF1) mice
Settings: endpoint: mean survival time, higher = longer survival
Method in brief: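 Vehicle-treated tumor-bearing mice served as controls (C) for compound-treated mice (T). Reported figure is T divided by C.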

[1] = dose: 200.0 mg/kg/injection, schedule: Q01DX009 (ip), vehicle: saline with Tween-80

Measured: T/C

COC(=O)Nc1nc2ccc(C3(c4ccc(F)cc4)OCCO3)cc2[nH]1
active: dose: 60.0 mg/kg/injection, schedule: Q04DX003 (ip), vehicle: saline 151 % of control and 152 % of control | dose: 80.0 mg/kg/injection, schedule: Q04DX003 (ip), vehicle: saline 181 % of control | dose: 100.0 mg/kg/injection, schedule: Q04DX003 (ip), vehicle: saline 181 % of control | dose: 150.0 mg/kg/injection, schedule: Q01DX009 (oral), vehicle: saline 156 % of control | dose: 200.0 mg/kg/injection, schedule: Q01DX009 (oral), vehicle: saline 156 % of control
inactive: dose: 1.56 mg/kg/injection, schedule: Q01DX009 (ip), vehicle: saline 96 % of control | dose: 3.12 mg/kg/injection, schedule: Q01DX009 (ip), vehicle: saline 91 % of control | dose: 6.25 mg/kg/injection, schedule: Q01DX009 (ip), vehicle: saline 90 % of control | dose: 12.5 mg/kg/injection, schedule: Q01DX009 (ip), vehicle: saline with Tween-80 104 % of control | dose: 12.5 mg/kg/injection, schedule: Q01DX009 (ip), vehicle: saline 94 % of control and 104 % of control | dose: 25.0 mg/kg/injection, schedule: Q01DX009 (ip), vehicle: saline with Tween-80 106 % of control | dose: 25.0 mg/kg/injection, schedule: Q01DX009 (ip), vehicle: saline 105 % of control | dose: 40.0 mg/kg/injection, schedule: Q04DX003 (ip), vehicle: saline 120 % of control | dose: 50.0 mg/kg/injection, schedule: Q04DX003 (ip), vehicle: saline 115 % of control | [1] 87 % of control

CNC(=O)c1ccccc1C(c1ccccc1)C1(O)CCCCC1 (stereo not drawn)
inactive: dose: 100.0 mg/kg/injection, schedule: Q04DX003 (ip), vehicle: saline with Tween-80 101 % of control | dose: 200.0 mg/kg/injection, schedule: Q04DX003 (ip), vehicle: saline with Tween-80 88 % of control | dose: 400.0 mg/kg/injection, schedule: Q04DX003 (ip), vehicle: saline with Tween-80 93 % of control

CC(=O)OC1C(CO)OC(n2ccc3c(N)ncnc32)C1O (stereo not drawn)
inactive: dose: 5.0 mg/kg/injection, schedule: Q01DX001 (ip), vehicle: saline 104 % of control | dose: 10.0 mg/kg/injection, schedule: Q01DX001 (ip), vehicle: saline 117 % of control | dose: 20.0 mg/kg/injection, schedule: Q01DX001 (ip), vehicle: saline 117 % of control | dose: 40.0 mg/kg/injection, schedule: Q01DX001 (ip), vehicle: saline 110 % of control

Nc1ccc(S(=O)(=O)c2ccc(N)c(S(N)(=O)=O)c2)cc1
inactive: dose: 100.0 mg/kg/injection, schedule: Q01DX009 (ip), vehicle: saline with Tween-80 92 % of control | [1] 91 % of control | dose: 400.0 mg/kg/injection, schedule: Q01DX009 (ip), vehicle: saline with Tween-80 100 % of control

NS(=O)(=O)c1cccc(C(=O)O)c1
inactive: dose: 100.0 mg/kg/injection, schedule: Q01DX001 (ip), vehicle: saline with Tween-80 98 % of control | dose: 200.0 mg/kg/injection, schedule: Q01DX001 (ip), vehicle: saline with Tween-80 94 % of control | dose: 400.0 mg/kg/injection, schedule: Q01DX001 (ip), vehicle: saline with Tween-80 98 % of control

Cc1ncc([N+](=O)[O-])n1CCO
inactive: dose: 37.5 mg/kg/injection, schedule: Q01DX009 (ip), vehicle: Klucel (hydroxypropylcellulose) (HPC) 109 % of control | dose: 37.5 mg/kg/injection, schedule: Q04DX003 (ip), vehicle: Klucel (hydroxypropylcellulose) (HPC) 98 % of control | dose: 75.0 mg/kg/injection, schedule: Q01DX009 (ip), vehicle: Klucel (hydroxypropylcellulose) (HPC) 104 % of control | dose: 75.0 mg/kg/injection, schedule: Q04DX003 (ip), vehicle: Klucel (hydroxypropylcellulose) (HPC) 103 % of control | dose: 150.0 mg/kg/injection, schedule: Q01DX009 (ip), vehicle: Klucel (hydroxypropylcellulose) (HPC) 103 % of control | dose: 150.0 mg/kg/injection, schedule: Q04DX003 (ip), vehicle: Klucel (hydroxypropylcellulose) (HPC) 104 % of control | dose: 300.0 mg/kg/injection, schedule: Q01DX009 (ip), vehicle: Klucel (hydroxypropylcellulose) (HPC) 107 % of control | dose: 300.0 mg/kg/injection, schedule: Q04DX003 (ip), vehicle: Klucel (hydroxypropylcellulose) (HPC) 97 % of control | dose: 600.0 mg/kg/injection, schedule: Q01DX009 (ip), vehicle: Klucel (hydroxypropylcellulose) (HPC) 92 % of control | dose: 600.0 mg/kg/injection, schedule: Q04DX003 (ip), vehicle: Klucel (hydroxypropylcellulose) (HPC) 98 % of control
